Experimental data taken from the supplement of paper PMC8671470.

Key:
Settings in all cases: 72 h
[1] = system: HL-60; assay: cell viability (% survival relative to DMSO control); higher = less cytotoxic
Method in brief: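 Four-parameter log-logistic fits in drc and PharmacoGx supplied area under the curve where it is given. Underlying viability came from CellTiter-Glo, normalised to DMSO and proteasome-inhibitor wells, with the proteasome inhibitor at 10 μM. HL-60 cells in RPMI 1640 plus 10% FBS had been rescreened against the full library at five tenfold concentrations of 1–10,000 nM, in duplicate on 384-well plates, with DMSO or 100 nM of one of three metabolic inhibitors, for 72 h at 37 °C, 5% CO2.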

[2] = system: Mono-Mac-6; assay: cell viability (% survival relative to DMSO control, bortezomib = 0%); higher = less cytotoxic
Method in brief: (§1)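 Fifteen myeloid leukaemia cell lines (10 AML, 5 CML) were seeded at a density titrated to the linear growth range into 384-well plates pre-printed with compounds at 1, 10, 100, 1000 or 10000 nM in duplicate. Plates were incubated for 72 h at 37 °C with 5% CO2. Viability was then read by CellTiter-Glo luminescence. Each value is percent survival averaged over the duplicates, with vehicle set to 100% and a 10 µM positive control to 0%.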

[3] = system: NOMO-1; assay: as above
Method in brief: as §1

[4] = system: MV4-11; assay: as above
Method in brief: as §1

[5] = system: HL-60; assay: as above
Method in brief: as §1

[6] = system: HEL; assay: as above
Method in brief: as §1

[7] = system: THP-1; assay: as above
Method in brief: as §1

[8] = system: SHI-1; assay: as above
Method in brief: as §1

[9] = system: LAMA-84; assay: as above
Method in brief: as §1

[10] = system: BV-173; assay: as above
Method in brief: as §1

[11] = system: KU-812; assay: as above
Method in brief: as §1

[12] = system: ML-2; assay: as above
Method in brief: as §1

[13] = system: K-562; assay: as above
Method in brief: as §1

[14] = system: KCL-22
Method in brief: (§2)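 Fifteen myeloid leukaemia lines in RPMI 1640 were treated for 72 h at 37 °C and 5% CO2 with five tenfold doses from 1 to 10,000 nM, in duplicate. ATP luminescence was normalised to vehicle and to a positive control at 10 µM, then fitted with a four-parameter log-logistic model. The IC50 came from these fits.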

[15] = system: Mono-Mac-6
Method in brief: as §2

[16] = system: NOMO-1
Method in brief: as §2

[17] = system: MV4-11
Method in brief: as §2

[18] = system: HL-60
Method in brief: as §2

[19] = system: HEL
Method in brief: as §2

[20] = system: THP-1
Method in brief: as §2

[21] = system: KG-1
Method in brief: as §2

[22] = system: SHI-1
Method in brief: as §2

[23] = system: LAMA-84
Method in brief: as §2

[24] = system: MOLM-13
Method in brief: as §2

[25] = system: BV-173
Method in brief: as §2

[26] = system: KU-812
Method in brief: as §2

[27] = system: ML-2
Method in brief: as §2

[28] = system: K-562
Method in brief: as §2

CN(C)c1cc(NC(=O)CNC(C)(C)C)c(O)c2c1C[C@H]1C[C@H]3[C@H](N(C)C)C(=O)C(C(N)=O)C(=O)[C@@]3(O)C(=O)C1C2=O (stereo not given in full) [Tigecycline]
cell viability [%], [1]
Settings	0.001 µM	0.01 µM	0.1 µM	1 µM	10 µM
co-treatment: AZD3965 100 nM	103	98.51	106	103	101
co-treatment: DMSO vehicle	102	102.7	105	101.5	105
co-treatment: GSK2194069 100 nM	101.8	96.3	101	96.7	103
co-treatment: pictilisib 100 nM	97.3	100	103.3	101.8	102

cell viability [%]
Settings	1 nM	10 nM	100 nM	1000 nM	10000 nM
[2]	112	108	100	105	93.7
[3]	106	97.7	87	101	99.3
[4]	117	89.3	101	88.3	93.2
[5]	153	81.2	69.6	110	75.6
[6]	110	92.4	101	99.7	71.6
[7]	107	100	104	105	105
[8]	113	97.9	97.1	115	93.4
[9]	105	94.3	105	102	90
[10]	119	107	97.4	84	83.4
[11]	102	97	95.8	94.4	86.8
[12]	118	93.4	90.8	96.4	63
[13]	102	93.4	92.1	90.6	83.4

Settings	IC50 (cell viability) [µM]
[14]	> 10
[15]	> 10
[16]	> 10
[17]	> 10
[18]	> 10
[19]	> 10
[20]	> 10
[21]	> 10
[22]	> 10
[23]	> 10
[24]	> 10
[25]	> 10
[26]	> 10
[27]	> 10
[28]	> 10

COc1ccc2c(C(=S)N(C)CC(=O)O)cccc2c1C(F)(F)F [Tolrestat]
cell viability [%], [1]
Settings	0.001 µM	0.01 µM	0.1 µM	1 µM	10 µM
co-treatment: AZD3965 100 nM	97.3	106	104	97.9	98.253
co-treatment: DMSO vehicle	96	106	104	99.23	103.9
co-treatment: GSK2194069 100 nM	99	104.6	97.5	94.1	97.1
co-treatment: pictilisib 100 nM	95.7	104	96.8	88.1	100

cell viability [%]
Settings	1 nM	10 nM	100 nM	1000 nM	10000 nM
[2]	86.5	113	94.1	113	95.4
[3]	97.2	107	106	118	95.5
[4]	97.4	109	98.2	101	86.3
[5]	107	104	122	49.1	101
[6]	91.2	98.9	95	93	101
[7]	93.9	94.8	103	104	94.4
[8]	98.6	104	88.1	108	101
[9]	97.7	106	100	95.6	98.6
[10]	84.3	108	86.1	88.5	101
[11]	88.6	118	99.8	90.8	104
[12]	90.2	99	103	111	97.8
[13]	95.4	104	87.4	99.8	105

Settings	IC50 (cell viability) [µM]
[14]	> 10
[15]	> 10
[16]	> 10
[17]	> 10
[18]	> 10
[19]	> 10
[20]	> 10
[21]	> 10
[22]	> 10
[23]	> 10
[24]	> 10
[25]	> 10
[26]	> 10
[27]	> 10
[28]	> 10

CC[C@@]1(O)C(=O)OCc2c1cc1n(c2=O)Cc2cc3c(CN(C)C)c(O)ccc3nc2-1 [Topotecan]
cell viability [%], [1]
Settings	0.001 µM	0.01 µM	0.1 µM	1 µM	10 µM
co-treatment: AZD3965 100 nM	99.6	98.4	7.08	3.55	2.51
co-treatment: DMSO vehicle	101	103	11.5	5.98	2.79
co-treatment: GSK2194069 100 nM	91.07	111	10.4	6.25	3.68
co-treatment: pictilisib 100 nM	102	98	9.22	5.76	3.31

cell viability [%]
Settings	1 nM	10 nM	100 nM	1000 nM	10000 nM
[2]	87.3	98	2.7	0.495	0.236
[3]	98.7	98.9	12.6	2.17	0.853
[4]	91.1	54.2	2	2.09	-0.156
[5]	94.9	81.7	0.181	0.081	1.02
[6]	94.8	103	0.201	0.373	0.268
[7]	98.8	102	78.5	30.4	13.6
[8]	97.1	85.8	0.99	-0.151	0.783
[9]	93.6	97.4	29.2	1.78	0.506
[10]	100	56.7	-0.0236	0.0225	0.196
[11]	95.5	99.6	13.1	3.16	1.45
[12]	94.6	84.8	0.565	0.238	3.1
[13]	90.8	92.7	48.3	13.2	4.27

Settings	IC50 (cell viability) [µM]
[14]	0.0594
[15]	0.0344
[16]	0.0405
[17]	0.0119
[18]	0.0225
[19]	0.0333
[20]	0.289
[21]	0.0427
[22]	0.024
[23]	0.0654
[24]	0.018
[25]	0.0114
[26]	0.0407
[27]	0.0245
[28]	0.097
